Laboratory results taken from patent US6727232B2, “Nucleoside peptide antibiotics of AA-896” (Wyeth Holdings Corporation, priority 2001, dated 2004).
Converted amounts (≈) assume the structure as drawn.

Tests used:
Test in all cases: Broth dilution MIC
Type in all cases: cell-based
S. aureus GC 2216 = conditions: Staphylococcus aureus, GC2216; S. aureus GC 2216; Mueller-Hinton broth, 18 hours at 35° C.; read-out: Antimicrobial Activity (MIC)
Procedure, shortened: (§1)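 Serial dilutions in Mueller-Hinton broth inoculated with bacterial suspension. MIC is the lowest concentration inhibiting growth after 18 hours at 35° C.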

S. marcescens GC 4077 = conditions: Serratia marcescens, GC4077; S. marcescens GC 4077; Mueller-Hinton broth, 18 hours at 35° C.; read-out: Antimicrobial Activity (MIC)
Procedure, shortened: as §1

E. coli GC 4560 = conditions: Escherichia coli, GC4560, 18 h, read-out: Antimicrobial Activity (MIC)
Procedure, shortened: as §1

E. coli GC 2203 = conditions: Escherichia coli, GC2203; E. coli GC 2203; Mueller-Hinton broth, 18 hours at 35° C.; read-out: Antimicrobial Activity (MIC)
Procedure, shortened: as §1

E. faecalis GC 842 = conditions: Enterococcus faecalis, GC842; E. faecalis GC 842; Mueller-Hinton broth, 18 hours at 35° C.; read-out: Antimicrobial Activity (MIC)
Procedure, shortened: as §1

E. cloacae GC 3783 = conditions: Enterobacter cloacae, GC3783; E. cloacae GC 3783; Mueller-Hinton broth, 18 hours at 35° C.; read-out: Antimicrobial Activity (MIC)
Procedure, shortened: as §1

P. aeruginosa GC 2214 = conditions: Pseudomonas aeruginosa, GC2214; P. aeruginosa GC 2214; Mueller-Hinton broth, 18 hours at 35° C.; read-out: Antimicrobial Activity (MIC)
Procedure, shortened: as §1

CNS GC 4547 = conditions: CNS GC 4547; Mueller-Hinton broth, 18 hours at 35° C.; read-out: Antimicrobial Activity (MIC)
Procedure, shortened: as §1

E. coli GC 3226 = conditions: Escherichia coli, GC3226; E. coli GC 3226; Mueller-Hinton broth, 18 hours at 35° C.; read-out: Antimicrobial Activity (MIC)
Procedure, shortened: as §1

S. aureus GC 4536 = conditions: Staphylococcus aureus, GC4536; S. aureus GC 4536; Mueller-Hinton broth, 18 hours at 35° C.; read-out: Antimicrobial Activity (MIC)
Procedure, shortened: as §1

E. faecalis GC 4555 = conditions: Enterococcus faecalis, GC4555; E. faecalis GC 4555; Mueller-Hinton broth, 18 hours at 35° C.; read-out: Antimicrobial Activity (MIC)
Procedure, shortened: as §1

P. rettgeri GC 4530 = conditions: Providencia rettgeri, GC4530; P. rettgeri GC 4530; Mueller-Hinton broth, 18 hours at 35° C.; read-out: Antimicrobial Activity (MIC)
Procedure, shortened: as §1

M. morganii GC 4531 = conditions: Morganella morganii, GC4531; M. morganii GC 4531; Mueller-Hinton broth, 18 hours at 35° C.; read-out: Antimicrobial Activity (MIC)
Procedure, shortened: as §1

K. pneumoniae GC 4534 = conditions: Klebsiella pneumoniae, GC4534; K. pneumoniae GC 4534; Mueller-Hinton broth, 18 hours at 35° C.; read-out: Antimicrobial Activity (MIC)
Procedure, shortened: as §1

CNS GC 4538 = conditions: CNS GC 4538; Mueller-Hinton broth, 18 hours at 35° C.; read-out: Antimicrobial Activity (MIC)
Procedure, shortened: as §1

P. aeruginosa GC 4532 = conditions: Pseudomonas aeruginosa, GC4532; P. aeruginosa GC 4532; Mueller-Hinton broth, 18 hours at 35° C.; read-out: Antimicrobial Activity (MIC)
Procedure, shortened: as §1

CNS GC 4537 = conditions: CNS GC 4537; Mueller-Hinton broth, 18 hours at 35° C.; read-out: Antimicrobial Activity (MIC)
Procedure, shortened: as §1

E. faecalis GC 2242 = conditions: Enterococcus faecalis, GC2242; E. faecalis GC 2242; Mueller-Hinton broth, 18 hours at 35° C.; read-out: Antimicrobial Activity (MIC)
Procedure, shortened: as §1

S. aureus GC 1131 = conditions: Staphylococcus aureus, GC1131; S. aureus GC 1131; Mueller-Hinton broth, 18 hours at 35° C.; read-out: Antimicrobial Activity (MIC)
Procedure, shortened: as §1

E. coli GC 4559 = conditions: Escherichia coli, GC4559; E. coli GC 4559; Mueller-Hinton broth, 18 hours at 35° C.; read-out: Antimicrobial Activity (MIC)
Procedure, shortened: as §1

Structure (SMILES) | MIC (S. aureus GC 2216) [µg/mL] | MIC (S. marcescens GC 4077) [µg/mL] | MIC (E. coli GC 4560) [µg/mL] | MIC (E. coli GC 2203) [µg/mL] | MIC (E. faecalis GC 842) [µg/mL] | MIC (E. cloacae GC 3783) [µg/mL] | MIC (P. aeruginosa GC 2214) [µg/mL] | MIC (CNS GC 4547) [µg/mL] | MIC (E. coli GC 3226) [µg/mL] | MIC (S. aureus GC 4536) [µg/mL] | MIC (E. faecalis GC 4555) [µg/mL] | MIC (P. rettgeri GC 4530) [µg/mL] | MIC (M. morganii GC 4531) [µg/mL] | MIC (K. pneumoniae GC 4534) [µg/mL] | MIC (CNS GC 4538) [µg/mL] | MIC (P. aeruginosa GC 4532) [µg/mL] | MIC (CNS GC 4537) [µg/mL] | MIC (E. faecalis GC 2242) [µg/mL] | MIC (S. aureus GC 1131) [µg/mL] | MIC (E. coli GC 4559) [µg/mL]
CO[C@H]1C(O[C@H](C(C(=O)O)N(CCCNC(=O)C(NC(=O)C(NC(=O)NC(C(=O)O)C(C)C)C2CCNC(=N)N2)C(O)C(C)C)Cc2ccccc2)[C@H]2O[C@@H](n3ccc(=O)[nH]c3=O)[C@H](O)[C@@H]2O)O[C@H](CNCc2ccccc2)[C@@H]1O (stereo partly drawn) [Example 20B, 15-Benzyl-16-((R)-({(3R,4S,5R)-5-[(benzylamino)methyl]-4-hydroxy-3-methoxytetrahydro-2-furanyl}oxy){(2S,3S,4R,5R)-5-[2,4-dioxo-3,4-dihydro-1 (2H)-pyrimidinyl]-3,4-dihydroxytetrahydro-2-furanyl}methyl)-9-(1-hydroxy-2-methylpropyl)-6-(2-iminohexahydro-4-pyrimidinyl)-2-isopropyl-4,7,10-trioxo-3,5,8,11,15-pentaazaheptadecane-1,17-dioic Acid] | > 32 | > 32 | 32 (≈ 28.4 µM) | > 32 | > 32 | > 32 | > 32 | > 32 | > 32 | > 32 | > 32 | > 32 | > 32 | > 32 | > 32 | > 32 | > 32 | > 32 | > 32 | > 32
CO[C@H]1C(O[C@H](C(C(=O)O)N(CCCNC(=O)C(NC(=O)C(NC(=O)NC(C(=O)O)C(C)C)C2CCNC(=N)N2)C(O)C(C)C)Cc2ccccc2)[C@H]2O[C@@H](n3ccc(=O)[nH]c3=O)[C@H](O)[C@@H]2O)O[C@H](CN)[C@@H]1O (stereo partly drawn) [Example 6, 16-((R)-{[(3R,4S,5R)-5-(Aminomethyl)-4-hydroxy-3-methoxytetrahydro-2-furanyl]oxy}{(2S,3S,4R,5R)-5-[2,4-dioxo-3,4-dihydro-1 (2H)-pyrimidinyl]-3,4-dihydroxytetrahydro-2-furanyl}methyl)-15-benzyl-9-(1-hydroxy-2-methylpropyl)-6-(2-iminohexahydro-4-pyrimidinyl)-2-isopropyl-4,7,10-trioxo-3,5,8,11,15-pentaazaheptadecane-1,17-dioic Acid] | > 32 | > 32 | 2 (≈ 1.93 µM) | > 32 | > 32 | > 32 | > 32 | > 32 | > 32 | > 32 | > 32 | > 32 | > 32 | > 32 | > 32 | > 32 | > 32 | > 32 | > 32 | > 32
CO[C@H]1C(O[C@H](C(C(=O)O)N(CCCNC(=O)C(NC(=O)C(NC(=O)NC(C(=O)O)C(C)C)C2CCNC(=N)N2)C(O)C(C)C)Cc2ccc(-c3ccccc3)cc2)[C@H]2O[C@@H](n3ccc(=O)[nH]c3=O)[C@H](O)[C@@H]2O)O[C@H](CNCc2ccc(-c3ccccc3)cc2)[C@@H]1O (stereo partly drawn) [Example 19B, 15-([1,1′-Biphenyl]-4-ylmethyl)-16-((R)-[((3R,4S,5R)-5-{[([1,1′-biphenyl]-4-ylmethyl)amino]methyl}-4-hydroxy-3-methoxytetrahydro-2-furanyl)oxy]{(2S,3S,4R,5R)-5-[2,4-dioxo-3,4-dihydro-1 (2H)-pyrimidinyl]-3,4-dihydroxytetrahydro-2-furanyl}methyl)-9-(1-hydroxy-2-methylpropyl)-6-(2-iminohexahydro-4-pyrimidinyl)-2-isopropyl-4,7,10-trioxo-3,5,8,11,15-pentaazaheptadecane-1,17-dioic Acid] | > 32 | > 32 | > 32 | > 32 | > 32 | > 32 | > 32 | > 32 | > 32 | > 32 | > 32 | > 32 | > 32 | > 32 | > 32 | > 32 | > 32 | > 32 | > 32 | > 32
